Patent publication US7273863B1, “Benzophenones as inhibitors of reverse transcriptase” (SmithKline Beecham Corporation, priority 1999, dated 2007)
Where two headings read alike, the source gives them in different places.

Legend:
HIV-1 (strain IIIB) = assay: MT4 cell assay, antiviral HIV activity (propidium iodide); type: cell-based; settings: Human immunodeficiency virus 1, IIIB
Protocol: Antiviral HIV activity and compound-induced cytotoxicity were measured in parallel by means of a propidium iodide based procedure in the human T-cell lymphotropic virus transformed cell line MT4. Aliquots of the test compounds were serially diluted in medium (RPMI 1640, 10% fetal calf serum (FCS), and gentamycin) in 96-well plates (Costar 3598) using a Cetus Pro/Pette. Exponentially growing MT4 cells were harvested and centrifuged at 1000 rpm for 10 min in a Jouan centrifuge (model CR 4 12). Cell pellets were resuspended in fresh medium (RPMI 1640, 20% FCS, 20% IL-2, and gentamycin) to a density of 5×10^5 cells/ml. Cell aliquots were infected by the addition of HIV-1 (strain IIIB) diluted to give a viral multiplicity of infection of 100×TCID50. A similar cell aliquot was diluted with medium to provide a mock-infected control. Cell infection was allowed to proceed for 1 hr at 37° C. in a tissue culture incubator with humidified 5% CO2 atmosphere. After the 1 hr incubation the virus/cell suspensions were diluted 6-fold with fresh medium, and 125 μl of the cell suspension was added to each well of the plate containing pre-diluted compound. Plates were then placed in a tissue culture incubator with humidified 5% CO2 for 5 days. At the end of the incubation period, 27 μl of 5% Nonidet-40 was added to each well of the incubation plate. After thorough mixing with a Costar multitip pipetter, 60 μl of the mixture was transferred to filter-bottomed 96-well plates. The plates were analyzed in an automated assay instrument (Screen Machine, Idexx Laboratories). The control and standard used was 3′-azido-3′-deoxythymidine tested over a concentration range of 0.01 to 1 μM in every assay. […] The assay-makes use of a propidium iodide dye to estimate the DNA content of each well.
The antiviral effect of a test compound is reported as an IC50, i.e. the inhibitory concentration that would produce a 50% decrease in the HIV-induced cytopathic effect. This effect is measured by the amount of test compound required to restore 50% of the cell growth of HIV-infected MT4 cells, compared to uninfected MT4 cell controls. IC50 was calculated by RoboSage, Automated Curve Fitting Program, version 5.00, 10 Jul. 1995.
For each assay plate, the results (relative fluorescence units, rfU) of wells containing uninfected cells or infected cells with no compound were averaged, respectively. For measurements of compound-induced cytotoxicty, results from wells containing various compound concentrations and uninfected cells were compared to the average of uninfected cells without compound treatment. Percent of cells remaining is determined by the following formula: Percent of cells remaining=(compound−treated uninfected cells, rfU/untreated uninfected cells)×100.
A level of percent of cells remaining of 79% or less indicates a significant level of direct compound-induced cytotoxicity for the compound at that concentration. When this condition occurs the results from the compound-treated infected wells at this concentration are not included in the calculation of IC50.
For measurements of compound antiviral activity, results from wells containing various compound concentrations and infected cells are compared to the average of uninfected and infected cells without compound treatment. Percent inhibition of virus is determined by the following formula: Percent inhibition of virus=(1−((ave. untreated uninfected cells−treated infected cells)/(ave. untreated uninfected cells−ave. untreated infected cells)))×100

NEV-R = assay: as above; type: cell-based; settings: Human immunodeficiency virus 1, MT4, read-out: IC50 (nM) Range
[1] = test system: isogenic HIV-1 RT mutant virus K103N; assay: HeLa cell assay (HIV-LTR β-galactosidase reporter); type: cell-based; settings: Human immunodeficiency virus 1, HeLa, read-out: IC50 (nM) Range
Protocol: (§1) The HeLa cell assay was performed according to a modification of Kimpton J. and Emerman M., Detection of replication-competent and pseudotyped human immunodeficiency virus with a sensitive cell line on the basis of activation of an integrated β-galactosidase gene, J. Virol. 66:2232-2239 (1992), in which HIV-1 infection is detected by the activation of an HIV-LTR driven β-galactosidase reporter that is integrated into the genome of a CD4^+ HeLa cell line. Quantitation of β-galactosidase is achieved by measuring the activation of a chemiluminescent substrate (Tropix). The concentration of each compound required to inhibit 50% (IC50) of the HIV-1 induced β-galactosidase signal, relative to untreated controls, was determined for each isogenic, recombinant virus.
(§2) HeLa-CD4-LTR-β-gal cells were obtained from the NIH AIDS Research and Reference Reagent Program. Cells were propagated in DMEM containing 10% fetal bovine serum, 0.2 mg/ml geneticin and 0.1 mg/ml hygromycin B. Cells were routinely split by trypsinization when confluency reached 80% (approximately every 2 to 3 days).
(§3) DNA encoding the HIV-1 reverse transcriptase was subcloned from a M13 phage into a general shuttle vector, pBCSK+, as a ˜1.65 kbp EcoRI/HindIII ended DNA fragment. The HIV DNA insert of the resulting plasmid, pRT2, was completely sequenced on both strands prior to use in site directed mutagenesis experiments. Specific amino acid replacements were made using Stratagene Quick Change reagents and mutagenic oligonucleotides from Oligos. Following mutagenesis, the entire mutant RT coding sequence was verified by sequencing both DNA strands.
(§4) Mutant HIV-1 strains were isolated by a modified Recombinant Virus Assay (Kellam P. and Larder B., Recombinant virus assay: a rapid, phenotypic assay for assessment of drug susceptibility of human immunodeficiency virus type 1 isolates, Antimicrobial Agents and Chemotherapy, 38:23-30, 1994). 1×10^7 Jurkat T-cells (maintained in RPMI containing 10% fetal bovine serum, split 1:5 every 5 to 6 days) were co-transfected with EcoRI/HindIII digested mutant RT plasmid and Bst EII-digested HIV-1HXB2ΔRT DNA in the presence of DMRIE-C transfection reagent (Gibco) according to supplier's recommended protocol. Each mutant RT coding sequence was crossed into the RT-deleted HIV-1 viral DNA backbone by in vivo homologous recombination. Transfected cell cultures were expanded and monitored until syncitia formation and CPE were extensive. Virus was harvested by clear spin of the culture supernatants and frozen at −80 C as primary stock. Recombinant progeny virus was sequenced in the RT region to confirm the mutant genotype. Virus stocks were further expanded by infection of Jurkat cells, harvested and stored as frozen aliquots. Stocks were titered in HeLa MAGI cells for assay.
(§5) The HIV-1HXB2 mutants were titered in the HeLa MAGI assay system to determine the relative light units (RLU) per ml, a measure of infectivity relevant for this assay system. Virus stocks were diluted in a 2-fold series into DMEM containing 10% fetal bovine serum plus 20 ug/ml DEAE-dextran and assayed as described in the Experimental Protocol section, below.
(§6) 96-well microtiter plate(s) (Costar #3598) were seeded with 3×10^3 HeLa-CD4-LTR-β-gal in 100 μl DMEM containing 10% fetal bovine serum. Plates were placed in a 37° C., 5% CO2 humidified incubator overnight. The following day, mutant virus stocks were thawed in a room temperature water bath and diluted into DMEM containing 10% fetal bovine serum and 20 μg/ml DEAE-dextran to achieve an input of 1500 to 2000 RLU/ml. All media was removed with an 8 channel manifold aspirator and 35 μl (50 to 70 total RLUs) of diluted virus was added to each well for virus adsorption. Plates were placed in a 37° C., 5% CO2 humidified incubator for 1.5 to 2 hours.
(§7) Compound titration plates were prepared at 1.35× final concentration during the virus adsorption period. […]

[2] = test system: isogenic HIV-1 RT mutant virus K103N/Y181C; assay: HeLa cell assay (HIV-LTR β-galactosidase reporter); type: cell-based; settings: Human immunodeficiency virus 1, HeLa, read-out: IC50 (nM) Range
Protocol: as §1, §2, §3, §4, §5, §6, §7

HIV-2 = assay: MT4 cell assay, antiviral HIV activity (propidium iodide); type: cell-based; settings: Human immunodeficiency virus 2, Virus Type HIV-2, read-out: IC50 (nM) Range
[3] = test system: isogenic HIV-1 RT mutant virus Y181C; assay: HeLa cell assay (HIV-LTR β-galactosidase reporter); type: cell-based; settings: Human immunodeficiency virus 1, HeLa, read-out: IC50 (nM) Range
Protocol: as §1, §2, §3, §4, §5, §6, §7

WTRVA = assay: HeLa cell assay (HIV-LTR β-galactosidase reporter); type: cell-based, HIV-1; settings: Human immunodeficiency virus 1, Virus Type WTRVA, read-out: IC50 (nM) Range
Protocol: as §1, §2, §3, §4, §5, §6, §7

[4] = test system: isogenic HIV-1 RT mutant virus V106A; assay: HeLa cell assay (HIV-LTR β-galactosidase reporter); type: cell-based; settings: Human immunodeficiency virus 1, HeLa, read-out: IC50 (nM) Range
Protocol: as §1, §2, §3, §4, §5, §6, §7

[5] = test system: isogenic HIV-1 RT mutant virus V106I/Y181C; assay: HeLa cell assay (HIV-LTR β-galactosidase reporter); type: cell-based; settings: Human immunodeficiency virus 1, HeLa, read-out: IC50 (nM) Range
Protocol: as §1, §2, §3, §4, §5, §6, §7

[6] = test system: isogenic HIV-1 RT mutant virus V106A/Y181C; assay: HeLa cell assay (HIV-LTR β-galactosidase reporter); type: cell-based; settings: Human immunodeficiency virus 1, HeLa, read-out: IC50 (nM) Range
Protocol: as §1, §2, §3, §4, §5, §6, §7

[7] = test system: isogenic HIV-1 RT mutant virus V106I; assay: HeLa cell assay (HIV-LTR β-galactosidase reporter); type: cell-based; settings: Human immunodeficiency virus 1, HeLa, read-out: IC50 (nM) Range
Protocol: as §1, §2, §3, §4, §5, §6, §7

[8] = Virus Type HIV-1, Assay MT4, read-out: IC50 (nM) Range

Structure (SMILES)	IC50 (HIV-1 (strain IIIB); [8]) [nM]	IC50 (NEV-R) [nM]	IC50 [1] [nM]	IC50 [2] [nM]	IC50 [3] [nM]	IC50 (WTRVA) [nM]	other results
O=C(COc1ccc(Cl)cc1C(=O)c1cc2ccccc2o1)Nc1ccccc1 [Compound 9]	11 to 100	101 to 1000					
Cc1cc(S(N)(=O)=O)ccc1NC(=O)COc1ccc(Cl)cc1C(=O)c1cc(Cl)cc(Cl)c1 [Compound 79]	< 10	< 10	< 10	< 10			IC50 (HIV-2): 1000 to 3000 nM
O=C(COc1ccc(Cl)cc1C(=O)c1ccccc1)Nc1ccc(-n2cncn2)cc1 [Compound 103]	11 to 100	101 to 1000	11 to 100				
O=C(COc1ccc(Cl)cc1C(=O)c1nccs1)Nc1ccc2[nH]ncc2c1 [Compound 5]	11 to 100	101 to 1000					
Cc1cc(OCCCN2CCOCC2)ccc1NC(=O)COc1ccc(Cl)cc1C(=O)c1cccs1 [Compound 120]	11 to 100	11 to 100	11 to 100	101 to 1000	11 to 100	11 to 100	
O=C(COc1ccc(Cl)cc1C(=O)c1cc(F)cc(F)c1)Nc1ccc(Cl)nc1 [Compound 275]							melting point: 198 to 200 °C
COc1ccc(NC(=O)COc2ccc(Cl)cc2C(=O)c2cc(F)cc(F)c2)cn1 [Compound 274]							melting point: 185 to 187 °C
O=C(COc1ccc(Cl)cc1C(=O)c1ccco1)Nc1ccc2cn[nH]c2c1 [Compound 435]	< 10	11 to 100	< 10	101 to 1000	11 to 100	< 10	
O=C(c1cc(F)cc(F)c1)c1cc(Cl)ccc1OCC(=O)N1CCc2ccccc21 [Compound 276]							melting point: 158 to 160 °C
Cc1cc(S(N)(=O)=O)ccc1NC(=O)COc1ccc(Cl)cc1C(=O)c1cc(C#N)cc(C#N)c1 [Compound 601]	< 10	< 10	< 10		< 10	< 10	IC50 [4]: < 10 nM
O=C(COc1ccc(Cl)cc1C(=O)c1ccccc1)Nc1ccc2cn[nH]c2c1 [Compound 387]	< 10	11 to 100	< 10	11 to 100	11 to 100	< 10	
Cc1cn([C@H]2C[C@H](N=[N+]=[N-])[C@@H](CO)O2)c(=O)[nH]c1=O [3′-azido-3′-deoxythymidine, reference compound]							IC50 (HIV-1 (strain IIIB); control and standard tested in every MT4 assay, 0.01 to 1 μM, read-out: expected range of IC50 values): 40 to 120 nM
Cc1cc(Cl)cc(C(=O)c2cc(Cl)ccc2OCC(=O)Nc2ccc(S(N)(=O)=O)cc2C)c1 [Compound 483]	11 to 100	< 10	101 to 1000		101 to 1000	11 to 100	IC50 [5]: 11 to 100 nM; IC50 [6]: 101 to 1000 nM; IC50 [7]: < 10 nM
CS(=O)(=O)Nc1ccc(NC(=O)COc2ccc(Cl)cc2C(=O)c2ccccc2)cc1 [Compound 338]	< 10	11 to 100	11 to 100	101 to 1000	11 to 100	< 10	
Cc1cc(N2CC[S+]([O-])CC2)ccc1NC(=O)COc1ccc(Cl)cc1C(=O)c1cccs1 [Compound 122]	< 10	11 to 100	11 to 100	1000 to 3000	101 to 1000	11 to 100	
Cc1cc(N2CC[S+]([O-])CC2)ccc1NC(=O)COc1ccc(Cl)cc1C(=O)c1nccs1 [Compound 8]	11 to 100	101 to 1000					
O=C(COc1ccc(Cl)cc1C(=O)c1nccs1)Nc1ccccc1 [Compound 1]	101 to 1000	1000 to 3000					
O=C(COc1ccc(Cl)cc1C(=O)c1cc(F)cc(F)c1)Nc1ccc2c(c1)CS(=O)(=O)C2 [Compound 277]							melting point: 197 to 199 °C
